Assay results published in US11149037B2, “Pyrazole MAGL inhibitors” (H. Lundbeck A/S, priority 2017, dated 2021).

Tests used:
MAGL [1] = target: MAGL (Homo sapiens (Human), UniProt Q99685); assay: In vitro competitive activity-based protein profiling, human proteomes (prefrontal cortex or PC3 cell membrane fractions); assay type: biochemical; settings: human proteome; for inhibition at 1 µM: read-out: MAGL % inh. 1 μM (human); for inhibition at 10 µM: read-out: MAGL % inh. (human) @ 10 μM
How it was run: (§1)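 Activity of MAGL and FAAH was quantified from fluorescent gel band intensities. Beforehand, inhibitors at several concentrations competed against subsequent probe labelling (FP-Rh, JW912 or HT-01) in species-matched proteomes, each step 30 min at 37° C.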

FAAH [2] = target: FAAH (Homo sapiens (Human), UniProt O00519); assay: as above; assay type: biochemical; settings: human proteome; for inhibition at 1 µM: read-out: FAAH % inh. 1 μM (human)
Chain of FAAH (Homo sapiens (Human), UniProt O00519) (O00519 whole entry): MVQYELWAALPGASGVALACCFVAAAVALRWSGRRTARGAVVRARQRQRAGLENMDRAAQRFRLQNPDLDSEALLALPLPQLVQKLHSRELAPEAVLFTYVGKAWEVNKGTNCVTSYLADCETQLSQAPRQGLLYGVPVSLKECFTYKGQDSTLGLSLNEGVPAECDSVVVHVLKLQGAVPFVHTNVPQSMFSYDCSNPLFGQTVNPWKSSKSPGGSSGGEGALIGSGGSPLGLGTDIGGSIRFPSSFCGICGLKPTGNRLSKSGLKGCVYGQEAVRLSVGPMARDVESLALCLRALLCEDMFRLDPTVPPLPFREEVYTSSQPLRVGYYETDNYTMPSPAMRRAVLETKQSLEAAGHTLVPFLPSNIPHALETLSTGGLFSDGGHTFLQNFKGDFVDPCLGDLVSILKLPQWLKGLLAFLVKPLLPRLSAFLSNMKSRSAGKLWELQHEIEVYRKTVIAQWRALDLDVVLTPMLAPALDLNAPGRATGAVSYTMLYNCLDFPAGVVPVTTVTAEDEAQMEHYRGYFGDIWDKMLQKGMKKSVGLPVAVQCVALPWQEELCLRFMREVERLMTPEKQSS
How it was run: as §1

FAAH [3] = target: T1, FAAH (Mus musculus (Mouse), UniProt O08914); assay: In vitro competitive activity-based protein profiling, mouse proteomes (brain membrane fraction or cell lysates); assay type: biochemical; settings: mouse proteome, read-out: FAAH % inh. 1 μM (mouse)
T1 sequence (O08914 whole entry): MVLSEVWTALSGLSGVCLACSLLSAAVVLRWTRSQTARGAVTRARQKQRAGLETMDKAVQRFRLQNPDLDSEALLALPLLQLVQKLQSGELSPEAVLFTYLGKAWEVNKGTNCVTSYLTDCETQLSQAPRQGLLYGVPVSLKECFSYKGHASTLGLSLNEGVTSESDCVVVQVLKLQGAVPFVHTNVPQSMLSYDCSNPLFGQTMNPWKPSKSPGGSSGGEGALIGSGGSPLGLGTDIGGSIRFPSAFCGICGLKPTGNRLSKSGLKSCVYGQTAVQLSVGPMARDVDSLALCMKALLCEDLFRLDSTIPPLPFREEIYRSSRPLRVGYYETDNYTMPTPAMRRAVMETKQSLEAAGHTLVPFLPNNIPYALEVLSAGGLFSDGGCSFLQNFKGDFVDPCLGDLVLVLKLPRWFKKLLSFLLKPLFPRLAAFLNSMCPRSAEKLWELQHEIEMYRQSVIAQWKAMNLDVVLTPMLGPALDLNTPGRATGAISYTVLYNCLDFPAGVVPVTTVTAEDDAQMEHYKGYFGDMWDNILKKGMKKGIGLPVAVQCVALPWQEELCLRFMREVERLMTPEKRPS
How it was run: as §1

MAGL [4] = target: T2, MAGL (Mus musculus (Mouse), UniProt O35678); assay: as above; assay type: biochemical; settings: mouse proteome, read-out: MAGL % inh. 1 μM (mouse)
T2 sequence (O35678 whole entry): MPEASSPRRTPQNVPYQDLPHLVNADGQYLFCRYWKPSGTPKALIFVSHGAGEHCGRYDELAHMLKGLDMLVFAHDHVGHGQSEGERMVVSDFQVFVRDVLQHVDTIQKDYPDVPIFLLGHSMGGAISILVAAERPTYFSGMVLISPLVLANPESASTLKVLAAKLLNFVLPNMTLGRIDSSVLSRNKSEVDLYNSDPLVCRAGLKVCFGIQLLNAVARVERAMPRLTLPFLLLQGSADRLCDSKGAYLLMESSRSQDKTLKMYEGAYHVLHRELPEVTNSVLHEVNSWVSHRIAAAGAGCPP
How it was run: as §1

FAAH [5] = target: T1, FAAH; assay: Mouse brain proteomes from inhibitor treated mice (oral gavage, sacrificed 4 h after administration); assay type: in vivo; settings: 5 mg/kg oral gavage
Protocol: (§2) Preparation of Mouse Brain Proteomes from Inhibitor Treated Mice.
(§3) Inhibitors were administered to wild-type C57B1/6J by oral gavage in a vehicle of polyethylene glycol. Each animal was sacrificed 4 h following administration and brain proteomes were prepared and analyzed according to previously established methods (See Niphakis, M. J., et al. (2011) ACS Chem. Neurosci. and Long, J. Z., et al. Nat. Chem. Biol. 5:37-44).

MAGL [6] = target: T2, MAGL; assay: as above; assay type: in vivo; settings: 5 mg/kg oral gavage
Protocol: as §2, §3

Chain of MAGL (Homo sapiens (Human), UniProt Q99685) (Q99685 whole entry): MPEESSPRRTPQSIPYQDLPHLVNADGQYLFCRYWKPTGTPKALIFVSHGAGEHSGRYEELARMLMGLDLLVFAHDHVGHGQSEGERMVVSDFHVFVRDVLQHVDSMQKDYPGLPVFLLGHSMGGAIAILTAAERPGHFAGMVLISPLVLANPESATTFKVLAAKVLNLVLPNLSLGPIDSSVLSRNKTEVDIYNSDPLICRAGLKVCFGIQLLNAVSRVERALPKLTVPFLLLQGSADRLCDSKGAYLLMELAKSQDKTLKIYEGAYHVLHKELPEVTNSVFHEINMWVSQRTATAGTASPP

Row | Structure (SMILES) | inhibition at 1 µM (MAGL [1]) [%] | inhibition at 1 µM (FAAH [2]) [%] | inhibition at 1 µM (FAAH [3]) [%] | inhibition at 1 µM (MAGL [4]) [%] | FAAH % inh. 5 mg/kg (mouse) (FAAH [5]) | MAGL % inh. 5 mg/kg (mouse) (MAGL [6]) | IC50 (MAGL [1]) [µM] | inhibition at 50 µM (MAGL [1]; 50 μM, read-out: MAGL % inh. (human) @ 50 μM) [%] | inhibition at 10 µM (MAGL [1]) [%] | IC50 (FAAH [2]) [µM]
1 | CS(=O)(=O)Nc1ccn(C(=O)N2CCN(Cc3ccc(C(F)(F)F)c(N4CC[C@H](F)C4)c3)CC2)n1 [Example 119, (S)-N-(1-(4-(3-(3-Fluoropyrrolidin-1-yl)-4-(trifluoromethyl)benzyl)piperazine-1-carbonyl)-1H-pyrazol-3-yl)methanesulfonamide] | > 75 | 0 to 25 | 0 to 25 | > 75 | D (% inhibition is greater than or equal to 0% and less than 25%) | A (% inhibition is greater than or equal to 75%) |  |  |  | 
2 | C[C@H]1CN(C(=O)n2ccc(NS(C)(=O)=O)n2)CCN1Cc1ccc(C(F)(F)F)c(N2CCC(C(F)(F)F)CC2)c1 [Example 185, (S)-N-(1-(3-Methyl-4-(4-(trifluoromethyl)-3-(4-(trifluoromethyl)piperidin-1-yl)benzyl)piperazine-1-carbonyl)-1H-pyrazol-3-yl)methanesulfonamide] | > 75 |  |  | > 75 |  | A (% inhibition is greater than or equal to 75%) |  |  |  | 
3 | C[C@H]1CN(C(=O)n2ccc(NS(C)(=O)=O)n2)CCN1Cc1ccc(Cl)c(N2CCC(F)(F)CC2)c1 [Example 186, (S)-N-(1-(4-(4-Chloro-3-(4,4-difluoropiperidin-1-yl)benzyl)-3-methylpiperazine-1-carbonyl)-1H-pyrazol-3-yl)methanesulfonamide] | > 75 |  |  | > 75 |  | A (% inhibition is greater than or equal to 75%) |  |  |  | 
4 | CN(Cc1ccc(Cl)cc1N1CC2COCC2C1)C1(C)CCN(C(=O)n2ccc(NS(C)(=O)=O)n2)CC1 (stereo not drawn) [Example 197, N-(1-(4-((4-Chloro-2-(tetrahydro-1H-furo[3,4-c]pyrrol-5(3H)-yl)benzyl)(methyl)amino)-4-methylpiperidine-1-carbonyl)-1H-pyrazol-3-yl)methanesulfonamide] | > 75 |  |  | > 75 |  | D (% inhibition is greater than or equal to 0% and less than 25%) |  |  |  | 
5 | CC(=O)Nc1ccn(C(=O)N2CCC3(CCN(Cc4cc(F)cc(Cl)c4)C3)CC2)n1 [Example 176, N-(1-(2-(3-Chloro-5-fluorobenzyl)-2,8-diazaspiro[4.5]decane-8-carbonyl)-1H-pyrazol-3-yl)acetamide] | > 75 |  |  | > 75 |  | A (% inhibition is greater than or equal to 75%) | < 0.1 |  |  | 
6 | C[C@H]1CN(C(=O)n2ccc(NS(C)(=O)=O)n2)CCN1Cc1ccc(Cl)c(N2CC[C@H](F)C2)c1 [Example 189, N-(1-((S)-4-(4-Chloro-3-((S)-3-fluoropyrrolidin-1-yl)benzyl)-3-methylpiperazine-1-carbonyl)-1H-pyrazol-3-yl)methanesulfonamide] | > 75 |  |  | > 75 |  | A (% inhibition is greater than or equal to 75%) |  |  |  | 
7 | C[C@@H]1CN(C(=O)n2ccc(NS(C)(=O)=O)n2)CCN1Cc1ccc(C(F)(F)F)c(N2CC3COCC3C2)c1 (stereo partly drawn) [Example 182, N-(1-((3R)-3-Methyl-4-(3-(tetrahydro-1H-furo[3,4-c]pyrrol-5(3H)-yl)-4-(trifluoromethyl)benzyl)piperazine-1-carbonyl)-1H-pyrazol-3-yl)methanesulfonamide] | > 75 |  |  | > 75 |  | D (% inhibition is greater than or equal to 0% and less than 25%) | < 0.1 |  |  | 
8 | C[C@H]1CN(C(=O)n2ccc(NS(C)(=O)=O)n2)CCN1Cc1ccc(Cl)c(N2CCC(C(F)(F)F)CC2)c1 [Example 188, (S)-N-(1-(4-(4-Chloro-3-(4-(trifluoromethyl)piperidin-1-yl)benzyl)-3-methylpiperazine-1-carbonyl)-1H-pyrazol-3-yl)methanesulfonamide] | > 75 |  |  | > 75 |  | A (% inhibition is greater than or equal to 75%) |  |  |  | 
9 | CC(C)N1CCN(c2cc(CN3CCN(C(=O)n4ccc(NS(C)(=O)=O)n4)C[C@@H]3C)ccc2Cl)CC1=O [Example 190, (S)-N-(1-(4-(4-Chloro-3-(4-isopropyl-3-oxopiperazin-1-yl)benzyl)-3-methylpiperazine-1-carbonyl)-1H-pyrazol-3-yl)methanesulfonamide] | > 75 |  |  | > 75 |  | D (% inhibition is greater than or equal to 0% and less than 25%) |  |  |  | 
10 | CS(=O)(=O)Nc1ccn(C(=O)N2CCN(Cc3ccc(Cl)c(N4CC5CN(C(N)=O)CC5C4)c3)CC2)n1 (stereo not drawn) [Example 9, 5-(2-Chloro-5-((4-(3-(methylsulfonamido)-1H-pyrazole-1-carbonyl)piperazin-1-yl)methyl)phenyl)hexahydropyrrolo[3,4-c]pyrrole-2(1H)-carboxamide] | > 75 | 0 to 25 | 0 to 25 | > 75 |  |  |  |  |  | 
11 | CS(=O)(=O)Nc1ccn(C(=O)N2CCC3(CCN(Cc4ccc(N5CCCC5)cc4C(F)(F)F)C3)CC2)n1 [Example 48, N-(1-(2-(4-(Pyrrolidin-1-yl)-2-(trifluoromethyl)benzyl)-2,8-diazaspiro[4.5]decane-8-carbonyl)-1H-pyrazol-3-yl)methanesulfonamide] |  | 0 to 25 | 0 to 25 | 0 to 25 |  |  |  | 25 to 50 |  | 
12 | CC1CN(C(=O)n2ccc(NS(C)(=O)=O)n2)CCN1Cc1ccc(C(F)(F)F)cc1N1CCCC1 (stereo not drawn) [Example 88, N-(1-(3-Methyl-4-(2-(pyrrolidin-1-yl)-4-(trifluoromethyl)benzyl)piperazine-1-carbonyl)-1H-pyrazol-3-yl)methanesulfonamide] | > 75 | 0 to 25 | 0 to 25 | > 75 |  |  |  |  |  | 
13 | CS(=O)(=O)Nc1ccn(C(=O)N2CCC3(CCN(Cc4cc(N5CCCC5)cc(C(F)(F)F)c4)C3)CC2)n1 [Example 64, N-(1-(2-(3-(Pyrrolidin-1-yl)-5-(trifluoromethyl)benzyl)-2,8-diazaspiro[4.5]decane-8-carbonyl)-1H-pyrazol-3-yl)methanesulfonamide] | > 75 | 0 to 25 | 0 to 25 | > 75 |  |  |  |  |  | 
14 | CS(=O)(=O)Nc1ccn(C(=O)N2CCC3(CCCN3Cc3cc4ccc(C(F)(F)F)cc4s3)CC2)n1 [Example 53, N-(1-(1-((6-(Trifluoromethyl)benzo[b]thiophen-2-yl)methyl)-1,8-diazaspiro[4.5]decane-8-carbonyl)-1H-pyrazol-3-yl)methanesulfonamide] |  | 0 to 25 | 0 to 25 | 0 to 25 |  |  |  |  | > 75 | 
15 | CS(=O)(=O)Nc1ccn(C(=O)N2CCN(Cc3ccc(Cl)c(OC4CCCC4)c3)CC2)n1 [Example 111, N-(1-(4-(4-Chloro-3-(cyclopentyloxy)benzyl)piperazine-1-carbonyl)-1H-pyrazol-3-yl)methanesulfonamide] | > 75 | 0 to 25 | 0 to 25 | > 75 |  |  |  |  |  | 
16 | CC(=O)Nc1ccn(C(=O)N2CCC3(CCN(Cc4cc(C(F)(F)F)cc(C5(C(=O)O)CCCC5)c4)C3)CC2)n1 [Example 25, 1-(3-((8-(3-Acetamido-1H-pyrazole-1-carbonyl)-2,8-diazaspiro[4.5]decan-2-yl)methyl)-5-(trifluoromethyl)phenyl)cyclopentane-1-carboxylic acid] | > 75 | 0 to 25 | 0 to 25 | > 75 |  |  | < 0.1 |  |  | 1 to 10
17 | CC(=O)Nc1ccn(C(=O)N2CCC3(CCCN3Cc3cc4cc(Cl)ccc4[nH]3)CC2)n1 [Example 38, N-(1-(1-((5-Chloro-1H-indol-2-yl)methyl)-1,8-diazaspiro[4.5]decane-8-carbonyl)-1H-pyrazol-3-yl)acetamide] |  |  | 25 to 50 | > 75 |  |  | < 0.1 |  |  | 1 to 10
18 | Cc1c(CN2CCN(C(=O)n3ccc(NS(C)(=O)=O)n3)CC2)sc2ccccc12 [Example 57, N-(1-(4-((3-Methylbenzo[b]thiophen-2-yl)methyl)piperazine-1-carbonyl)-1H-pyrazol-3-yl)methanesulfonamide] | > 75 | 0 to 25 | 0 to 25 | > 75 |  |  |  |  |  | 
19 | C#Cc1ccc(CN2CCN(C(=O)n3ccc(NS(C)(=O)=O)n3)CC2)cc1 [Example 69, N-(1-(4-(4-Ethynylbenzyl)piperazine-1-carbonyl)-1H-pyrazol-3-yl)methanesulfonamide] |  | 0 to 25 | 0 to 25 | 0 to 25 |  |  |  |  | > 75 | 
20 | CS(=O)(=O)Nc1ccn(C(=O)N2CCC3(CCN(Cc4ccc(Cl)cc4)C3)CC2)n1 [Example 164, N-(1-(2-(4-Chlorobenzyl)-2,8-diazaspiro[4.5]decane-8-carbonyl)-1H-pyrazol-3-yl)methanesulfonamide] | > 75 | 0 to 25 | 0 to 25 | 0 to 25 |  |  |  |  |  | 
